# How the values were obtained:
# [1] = Laboratory treatment of corn ethanol syrup with bisulfite in a Parr 4560 reactor; DON measured by NEOGEN VERATOX for DON 2/3 kit
# Description: Encouraged by these initial test results, further testing was performed utilizing a design of experiments to determine an equation modeling the effect of time, temperature, and SBS in the treatment of syrup. Syrup from a corn ethanol biorefinery was obtained and processed in the laboratory. All thermal treatments were performed utilizing a Parr 4560 reactor and a combined total of 70 g of syrup and SBS per reaction. Reaction conditions were from 85° C. to 115° C.; for 2 to 6 hours; and 0 to 0.05 g sodium bisulfite per dry gram syrup. The results from this study indicated a correlation between the SBS loading and the reduction in syrup DON. The model predicts a greater than 85% reduction in syrup DON is likely if treatment in a commercial process syrup tank is utilized. It was calculated that at a plant that is currently producing DDGS with 14.5 ppm DON with a 95% reduction in syrup DON would produce DDGS with 4.6 ppm DON.
# (§1) Syrup from a corn ethanol biorefinery was obtained and processed in the laboratory. Treatment was performed utilizing a Parr 4560 reactor and a combined total of 70 g of syrup and SBS per reaction. The reaction condition was carried out at 50° C. for 120 minutes and varying amounts of sodium bisulfite per dry gram syrup. The DON was measured by NEOGEN™ VERATOX™ for DON 2/3 kit.
# as §1, with “85°” for “50°”, “30” for “120”, “to 180 minutes using 0.048 grams” for “and varying amounts of”
# Syrup from a corn ethanol biorefinery was obtained and processed in the laboratory using a Parr 4560 reactor and combined with either 0.048 grams of SBS or ammonium bisulfite per dry gram of syrup. Ammonium bisulfite was a 65% aqueous solution of 95% ammonium bisulfite and 5% potassium bisulfite. The doses of the two reagents used were molar equivalent bisulfite doses. The reaction condition was carried out at 85° C. for 30, 60 and 90 minutes.
# [2] = DON analysis of DDGS sources and mixed diets of the pig trial; settings: treated vs untreated DDGS
# Description: A treated mycotoxin in which the DON levels in DON-contaminated DDGS were reduced by the method described in Example 5 (1.5 gallons per minute of a 38% aqueous solution of SBS was supplied continuously into the feed line of the syrup tank) and samples of dried DDGS were collected, analyzed and tested for its effect on pig growth.
# A total of 247 growing pigs (55.3±4.6 lb.) were housed at a wean-to-finish facility, randomly allotted to 18 pens (13-14 pigs/pen) containing one 3-hole feeder 2 free-access nipple drinkers, and assigned to one of 3 experimental diets: control, DONDDGS, and treated-DDGS. All experimental diets were corn/soybean meal based containing 30% DDGS (low DON, DON contaminated, and treated DON DDGS, respectively; Table 1).
# All diets met or exceeded nutrient requirements for growing pigs based on NRC (2012) and provided ad libitum. Experimental diets were fed for 21 days. Samples of the DDGS and corn used in the diets were analyzed for DON. Samples of the mixed diets were collected at day 0 and 21 and analyzed for proximate analysis and DON.
structure (smiles),measurement,setting,value
"O=S([O-])O.[Na+] [SBS, sodium bisulfite]",DON in the treated syrup as SBS dose increased (FIG. 4),"[1]; 50° C., 120 minutes, varying amounts of sodium bisulfite per dry gram syrup",reduced
same,DON in the treated syrup (FIG. 5),"[1]; 85° C., 30 minutes dwell time, 0.048 grams sodium bisulfite per dry gram syrup",less than 1 ppm
same,reduction in syrup DON predicted by the model,"[1]; design-of-experiments model (time, temperature, SBS), treatment in a commercial process syrup tank",greater than 85%
same,DON reduction in the syrup stream,[1]; syrup treated with SBS at process temperatures for extended time periods,greater than 85%
same,reduction of DON content in DON-DDGS,[2],37%

# From patent US11950617B2, “Remediation of toxins in biorefinery process streams” (priority 2017, dated 2024)
